Consider three compounds from patent publication US20150258197A1, “EUTECTIC ISOMETHEPTENE MUCATE” (TONIX PHARMA HOLDINGS LIMITED, priority 2014, published 2015).

The conditions of data set [1]: cited from earlier work.
Data set [2] relates to mice. Kind of data set: Hot Plate Test. Format: in vivo. The following applies: mouse, hot plate 54° C., 10, 30 and 100 mg/kg p.o. 15 minutes before the test. The source says:
(§1) Common mouse models for pain include the Formalin Test (Wheeler-Aceto, et al., Psychopharmacology, 104, 35-44, 1991), the Hot Plate Test (Eddy and Leimbach, J. Pharmacol. Exp. Ther., 107, 385-393, 1953), and the Tail-flick Test (D'Amour and Smith, J. Pharmacol. Exp. Ther., 1, 74-79, 1941). These methods detect analgesic activity of compositions of interest. In the Formalin Test, mice are given an intraplantar injection of 5% formalin into one posterior hindpaw to induce paw licking. Test compositions are given to the mice before treatment with formalin and the mice are evaluated and compared to a control group. In the Hot Plate Test, mice are placed onto a hot metal plate maintained at 54° C. and the latency to the first foot-lick is measured. As with the Formalin test, compositions of interest are given to the mice before the test and the mice are evaluated and compared to a control group. In the Tail-flick Test, a mouse's tail is heated by means of a thermal light source, and the latency before the animal withdraws its tail is measured. […]
Mice were placed onto a hot metal plate maintained at 54° C. surrounded by a Plexiglas cylinder (height: 13 cm; diameter: 19 cm). The latency to the first foot-lick was measured (maximum: 30 seconds). […]
Data with the test substance were analyzed by comparing treated groups with vehicle control using ANOVA followed by post-hoc Dunnett's tests. […]
Background: In hot-plate and tail-flick tests a longer latency is read as antinociception.

Data set [3] relates to mice. The experiment in a line: Formalin Test, late phase (licking score). Format: in vivo. The following applies: mouse, 5% formalin intraplantar, three doses p.o. 15 minutes before the test, 15-50 min after formalin.
Excerpt: as §1
Mice were given an intraplantar injection of 5% formalin (25 μL) into one posterior hindpaw. […] Mice were briefly observed at one minute intervals between 15 and 50 minutes after the injection of formalin and the number of occasions that the mice were observed licking the injected paw was recorded. […]

For data set [4], the system named is mice. Kind of data set: Tail-flick Test. Format: in vivo. The following applies: mouse, thermal light source, three doses (10, 30, 100) p.o. 15 minutes before the test. An excerpt: Common mouse models for pain include the Formalin Test (Wheeler-Aceto, et al., Psychopharmacology, 104, 35-44, 1991), the Hot Plate Test (Eddy and Leimbach, J. Pharmacol. Exp. Ther., 107, 385-393, 1953), and the Tail-flick Test (D'Amour and Smith, J. Pharmacol. Exp. Ther., 1, 74-79, 1941). These methods detect analgesic activity of compositions of interest. In the Formalin Test, mice are given an intraplantar injection of 5% formalin into one posterior hindpaw to induce paw licking. Test compositions are given to the mice before treatment with formalin and the mice are evaluated and compared to a control group. In the Hot Plate Test, mice are placed onto a hot metal plate maintained at 54° C. and the latency to the first foot-lick is measured. As with the Formalin test, compositions of interest are given to the mice before the test and the mice are evaluated and compared to a control group. In the Tail-flick Test, a mouse's tail is heated by means of a thermal light source, and the latency before the animal withdraws its tail is measured. Test compositions are administered before the test, and compared with a vehicle control group. The analgesic activity of the compositions described herein can be identified using the mouse formalin, hot plate, and tail-flick tests.
A method for detecting analgesic activity followed that described by D'Amour and Smith (J. Pharmacol. Exp. Ther., 1, 74-79, 1941). The mouse's tail was heated by means of a thermal light source (20 volts). The latency before the animal withdraws its tail was measured (maximum: 15 seconds).
Ten mice were studied per group. The test was performed partially blind.
The test substances selected from (R)-isometheptene mucate, and (S)-isometheptene mucate were evaluated at three doses ([…]), administered p.o. 15 minutes before the test, and compared with a vehicle control group. […]
Data with the test substance were analyzed by comparing treated groups with vehicle control using ANOVA followed by post-hoc Dunnett's tests. Data with the reference substance were analyzed using unpaired Student's t tests.

In data set [5] the test system is imidazoline-1 (I1) receptor. The following applies: cited from earlier work.
[6] abbreviates: compared with (S)-isometheptene.

Take `CNC(C)CCC=C(C)C` (racemic) [Racemic isometheptene, reference compound]: the “Heart rate and diastolic blood pressure” value in data set [1] (in vivo) is “increase”.
Consider `CN[C@@H](C)CCC=C(C)C` [(S)-isometheptene mucate], for which the “Foot-licking latency compared to vehicle” value in the data set on mice [2] is recorded as “longer foot-licking latency times”. Also, the “Licking score compared to vehicle” value with mice [3] was “reduction in licking score”. The “Tail flick latency compared to vehicle” value in the data set on mice [4] is recorded as “longer tail flick latency times”.
For the compound `CN[C@H](C)CCC=C(C)C` [(R)-isometheptene], the “Potential adverse effects to the cardiovascular system relative to (S)-isometheptene” value in data set [1] (setting [6]) was “lower potential adverse effects”. Also, the “Binding affinity for the imidazoline-1 (I1) receptor” value in data set [5] is “significant binding affinity”. In addition, the “I1 affinity relative to (S)-isometheptene” value in data set [5] (setting [6]) was “higher affinity”.
